In BindingDB's records for doi:10.7270/Q27P8WT7 (Srmlsc, 2008) one finds EC50 data, which are given here for 38 compounds.

The conditions of this test: inactive by the depositor's call.
As for `Cc1ccn2c(c1)nc(=S)n2C(=O)c1ccco1` [2-furanyl-(7-methyl-2-sulfanylidene-[1,2,4]triazolo[1,5-a]pyridin-3-yl)methanone], a half-maximal response (EC50) required 56.4 µM.

`CCn1cnc2sc(-c3ccccc3)cc2c1=O` [3-ethyl-6-phenyl-4-thieno[2,3-d]pyrimidinone] returned a 50% effective concentration (EC50) of 35.2 µM.

Turning to `Brc1ccccc1OCCCn1cnc2ccccc21` [1-[3-(2-bromanylphenoxy)propyl]benzimidazole], the 50% effective concentration (EC50) was found to be 62.3 µM.

The compound `CCCCNC(=S)Nc1ccc(-c2nc3ccc(C)cc3s2)cc1` [1-butyl-3-[4-(6-methyl-1,3-benzothiazol-2-yl)phenyl]thiourea] came in with an EC50 of 39.6 µM.

With `Oc1ccc(CN2CCCCC2)c2cccnc12` [5-(1-piperidinylmethyl)-8-quinolinol], a half-maximal response (EC50) required 53.8 µM.

As for `COc1ccc(C2=Nc3ccccc3OC2)cc1` [3-(4-methoxyphenyl)-2H-1,4-benzoxazine], the concentration giving a half-maximal response (EC50) is 45.6 µM. This EC50 and that of the compound before are within 1.5-fold of each other.

Consider `Fc1ccc(NC(=S)Nc2nccs2)cc1` [1-(4-fluorophenyl)-3-(1,3-thiazol-2-yl)thiourea], for which the EC50 turned out to be 35.6 µM.

As to `CN(C)/C=N/c1ccc2nn(-c3ccccc3)nc2c1` [MLS000105162], the EC50 stood at 42.9 µM.

Take `O=c1oc(-c2ccccc2)nc2sc3c(c12)CCCC3` [2-phenyl-5,6,7,8-tetrahydro-4H-[1]benzothieno[2,3-d][1,3]oxazin-4-one]: the EC50 worked out at 69.5 µM. Compared with the last compound, the EC50 is about 1.6-fold higher.

As for `Cc1cccc(-c2cc(N)n(-c3ccccc3)n2)c1` [5-(3-methylphenyl)-2-phenyl-3-pyrazolamine], the concentration for a half-maximal effect (EC50) is 80.1 µM.

For `CCOc1ccc(C(=O)Nc2cccc(C(=O)O)c2)cc1Cl` [3-[(3-chloranyl-4-ethoxy-phenyl)carbonylamino]benzoic acid], the concentration giving a half-maximal response (EC50) was 47.8 µM.

`S=C(c1ccc(-c2cccc(Cl)c2)o1)N1CCOCC1` [MLS000107692]: the 50% effective concentration (EC50) is 89.6 µM.

`COc1ccc2c(c1OC)C(=O)N(c1cccc(C(F)(F)F)c1)C2` [6,7-dimethoxy-2-[3-(trifluoromethyl)phenyl]-3H-isoindol-1-one]: the EC50 turned out to be 69.9 µM. The EC50 values of the last two compounds are within 1.5-fold of each other.

Regarding `NC(=O)Cc1ccc2sc(-c3ccccc3)nc2c1` [2-(2-phenyl-1,3-benzothiazol-5-yl)acetamide], the concentration for a half-maximal effect (EC50) was determined as 36.5 µM.

On to `CCCNC(=O)c1noc2c1CCc1cc(OC)ccc1-2` [7-methoxy-N-propyl-4,5-dihydrobenz[g]indoxazene-3-carboxamide], for which the half-maximal effective concentration (EC50) was found to be 39.9 µM.

`NC(=NOC(=O)COc1ccccc1Cl)c1ccccn1` [2-(2-chlorophenoxy)acetic acid [(Z)-[amino(2-pyridinyl)methylidene]amino] ester] came in with a concentration for a half-maximal effect (EC50) of 39.1 µM. This EC50 and that of the compound before are within 1.5-fold of each other.

In turn, `c1ccc(CSc2ccc(-c3ccccn3)nn2)cc1` [3-(benzylthio)-6-(2-pyridyl)pyridazine] gave an EC50 of 45.1 µM. The EC50 values of the last two compounds are within 1.5-fold of each other.

`Cc1ccc(NC(=O)c2noc3c2CCCCC3)cc1` [MLS000087401] yielded a 50% effective concentration (EC50) of 33.6 µM.

Turning to `Nc1c(-c2ccccc2)cnn1-c1ccc(C(=O)O)cc1` [4-(5-amino-4-phenyl-1-pyrazolyl)benzoic acid], the half-maximal effective concentration (EC50) amounted to 46.2 µM.

Regarding `Cc1ccc(OCc2nnc(-c3ccccn3)[nH]2)cc1`, the EC50 stood at 78.8 µM. This EC50 is about 1.7-fold higher than that of the compound before.

Consider `O=C(Nc1ccccc1)c1ccc2c(c1)OCCO2` [2,3-Dihydro-benzo[1,4]dioxine-6-carboxylic acid phenylamide], for which the EC50 turned out to be 41.7 µM.

For `Cc1ccnc(NC(=O)c2cc3ccccc3oc2=O)c1` [2-keto-N-(4-methyl-2-pyridyl)chromene-3-carboxamide], the EC50 worked out at 47.2 µM.

`COc1ccc2c3c(cccc13)C(=O)N(O)C2=O` came in with a concentration giving a half-maximal response (EC50) of 41.6 µM.

`COc1ccc(OC(=O)c2cnn(-c3ccccc3)c2C)cc1` [(4-methoxyphenyl) 5-methyl-1-phenyl-pyrazole-4-carboxylate] registered a half-maximal effective concentration (EC50) of 49.5 µM.

Compound `Cc1cccc(NC(=O)c2ccc3ccccc3n2)c1C` [MLS000569762] returned a half-maximal effective concentration (EC50) of 84.4 µM.

As to `O=C1CCCc2nc(N3CCc4ccccc43)ncc21` [2-(2,3-dihydroindol-1-yl)-7,8-dihydro-6H-quinazolin-5-one], a half-maximal effect (EC50) was put at 84.7 µM.

As to `CC(C)=CC(=O)Nc1ccc(Br)cc1` [N-(4-bromophenyl)-3-methylbut-2-enamide], the midpoint of the response, the EC50, lay at 46.4 µM.

The compound `COc1ccc(C(=O)Oc2c(CN3CCOCC3)cc(Cl)c3cccnc23)cc1` [4-methoxybenzoic acid [5-chloro-7-(4-morpholinylmethyl)-8-quinolinyl] ester] gave an EC50 of 46.5 µM.

Regarding `Nc1nc(-c2ccc3ccccc3c2)cs1` [4-(2-naphthalenyl)-2-thiazolamine], the EC50 amounted to 35.5 µM. This EC50 and that of the compound before are within 1.5-fold of each other.

`COc1nc(-c2ccccc2)nnc1-c1ccccc1` [3,6-diphenyl-1,2,4-triazin-5-yl methyl ether]: the response was half-maximal at 38.9 µM (EC50).

`COc1ccc(C2=NOC(CN3C(=O)c4ccccc4S3(=O)=O)C2)cc1` (stereo not drawn) registered a 50% effective concentration (EC50) of 55 µM. The EC50 values of the last two compounds are within 1.5-fold of each other.

For the compound `O=C(Nc1ccc2c(c1)CCC2)c1cccc(F)c1` [3-fluoro-N-indan-5-yl-benzamide], the half-maximal effective concentration (EC50) stood at 50.2 µM.

In turn, `Nc1ccccc1C(=O)/C=C/c1ccc2c(c1)OCO2` returned a concentration for a half-maximal effect (EC50) of 55.6 µM.

In turn, `COc1ccc(-c2cn3cc(C(F)(F)F)cc(Cl)c3n2)cc1` [4-[8-chloro-6-(trifluoromethyl)imidazo[1,2-a]pyridin-2-yl]phenyl methyl ether] displayed a concentration giving a half-maximal response (EC50) of 64.2 µM.

In the case of `CCOC(=O)c1nn(-c2ccc(C)cc2)cc1C(=O)c1ccccc1` [4-benzoyl-1-(4-methylphenyl)-3-pyrazolecarboxylic acid ethyl ester], the midpoint of the response, the EC50, lay at 36.7 µM.

`Cc1ccc2sc(NC(=O)CSc3nc(C)cc(C)c3C#N)nc2c1` [2-(3-Cyano-4,6-dimethyl-pyridin-2-ylsulfanyl)-N-(5-methyl-benzothiazol-2-yl)-acetamide] had an EC50 of 31.8 µM.

Compound `CCCCSc1ncc(C(=O)OCC)c(N)n1` [4-Amino-2-butylsulfanyl-pyrimidine-5-carboxylic acid ethyl ester] displayed an EC50 of 46.2 µM.

In turn, `Cn1nnc(-c2ccc(OCc3ccccc3F)cc2)n1` [5-[4-(2-fluorobenzyl)oxyphenyl]-2-methyl-tetrazole] gave a half-maximal effective concentration (EC50) of 69.3 µM.

The term EC50 denotes the concentration giving half of the maximal effect. Read a high EC50 as weaker potency.
